Test system: participants with SSc-RP
Assay: Average severity of weekly RP attacks (VAS 0-10)
Assay type: in vivo, human
Conditions: for Average Severity (0-10) of weekly RP attacks, Median / Average Severity (0-10) of weekly RP attacks, Mean / Average severity of weekly RP attacks, Percent Change from Baseline, Mean / Average severity of weekly RP attacks, Change from Baseline, Mean / Average severity of weekly RP attacks, Percent Change from Baseline, Median / Average severity of weekly RP attacks, Change from Baseline, Median: all attacks
Text: The absolute change in average severity of weekly RP attacks (VAS 0-10 cm scale) from baseline to the end of each Dosing Period was and will be a secondary outcome variable. The sponsor-developed participant-informed diary will be used to record data. Average severity of weekly RP attacks is defined as the total severity scores of RP attacks divided by total number of RP attacks within the last 7 days of each dosing period. Total severity scores of RP attacks during the last 7 days of screening period divided by the total number of RP attacks will be used as baseline for the analysis of all periods. The variable will be calculated similar to frequency data as before.

[1] = Pooled Cilnidipine 10 mg and Cilnidipine 10 mg + Tadalafil 5 mg, Excluding Outliers, 1st Baseline RCS subgroup, ITT Part A, last 7 days of dosing period
[2] = Pooled Cilnidipine 10 mg and Cilnidipine 10 mg + Tadalafil 5 mg, Excluding Outliers, 2nd Baseline RCS subgroup, ITT Part A, last 7 days of dosing period
[3] = Pooled Cilnidipine 10 mg and Cilnidipine 10 mg + Tadalafil 5 mg, ITT Part A, last 7 days of dosing period
[4] = Pooled Cilnidipine 10 mg and Cilnidipine 10 mg + Tadalafil 5 mg, Excluding Outliers, by Baseline RCS: second subgroup of Table C-8, ITT Part A
[5] = Pooled Cilnidipine 10 mg and Cilnidipine 10 mg + Tadalafil 5 mg, by Baseline RCS: second subgroup of Table C-7, ITT Part A
[6] = Pooled Cilnidipine 20 mg and Cilnidipine 20 mg + Tadalafil 5 mg, 1st Baseline RCS subgroup, ITT Part A, last 7 days of dosing period
[7] = Pooled Cilnidipine 20 mg and Cilnidipine 20 mg + Tadalafil 5 mg, 2nd Baseline RCS subgroup, ITT Part A, last 7 days of dosing period
[8] = Pooled Cilnidipine 20 mg and Cilnidipine 20 mg + Tadalafil 5 mg, Excluding Outliers, 1st Baseline RCS subgroup, ITT Part A, last 7 days of dosing period
[9] = Pooled Cilnidipine 20 mg and Cilnidipine 20 mg + Tadalafil 5 mg, Excluding Outliers, 2nd Baseline RCS subgroup, ITT Part A, last 7 days of dosing period
[10] = Pooled Cilnidipine 20 mg and Cilnidipine 20 mg + Tadalafil 5 mg, ITT Part A, last 7 days of dosing period
[11] = Pooled Cilnidipine 20 mg and Cilnidipine 20 mg + Tadalafil 5 mg, Excluding Outliers, by Baseline RCS: first subgroup of Table C-8, ITT Part A
[12] = Pooled Cilnidipine 20 mg and Cilnidipine 20 mg + Tadalafil 5 mg, by Baseline RCS: first subgroup of Table C-7, ITT Part A
[13] = Pooled Cilnidipine, 1st Baseline RCS subgroup, ITT Part A, last 7 days of dosing period
[14] = Pooled Cilnidipine, Excluding Outliers, 1st Baseline RCS subgroup, ITT Part A, last 7 days of dosing period
[15] = Pooled Cilnidipine, ITT Part A, last 7 days of dosing period
[16] = Pooled Cilnidipine, Excluding Outliers, ITT Part A
[17] = Pooled Cilnidipine, Excluding Outliers, by Baseline RCS: first subgroup of Table C-8, ITT Part A
[18] = Pooled Cilnidipine, by Baseline RCS: first subgroup of Table C-7, ITT Part A
[19] = Pooled Cilnidipine, excluding outliers, ITT Part A
[20] = Pooled Cilnidipine, excluding outliers, severity 0-10, ITT Part A
[21] = Pooled Cilnidipine, severity 0-10, ITT Part A

SMILES: COCCOC(=O)C1=C(C)NC(C)=C(C(=O)OC/C=C/c2ccccc2)C1c1cccc([N+](=O)[O-])c1 (centres unmarked) [Cilnidipine]
- Average Severity of Weekly Symptomatic RP Attacks, Change from Baseline, Median [1]: −1.22
- Average Severity of Weekly Symptomatic RP Attacks, Mean [1]: 3.34
- Average Severity of Weekly Symptomatic RP Attacks, Median [1]: 3.34
- Average Severity of Weekly Symptomatic RP Attacks, Percent Change from Baseline, Mean [1]: −20.18%
- Average Severity of Weekly Symptomatic RP Attacks, Percent Change from Baseline, Median [1]: −20.18%
- Average Severity of Weekly Symptomatic RP Attacks, Change from Baseline, Mean [2]: −1.13
- Average Severity of Weekly Symptomatic RP Attacks, Change from Baseline, Median [2]: −1.13
- Average Severity of Weekly Symptomatic RP Attacks, Mean [2]: 5.23
- Average Severity of Weekly Symptomatic RP Attacks, Median [2]: 5.23
- Average Severity of Weekly Symptomatic RP Attacks, Percent Change from Baseline, Mean [2]: −17.81%
- Average Severity of Weekly Symptomatic RP Attacks, Percent Change from Baseline, Median [2]: −17.81%
- Average Severity of Weekly RP Attacks (All Attacks), Change from Baseline, Mean [3]: −1.34
- Average Severity of Weekly RP Attacks (All Attacks), Change from Baseline, Median [3]: −1.32
- Average Severity of Weekly RP Attacks (All Attacks), Mean [3]: 3.62
- Average Severity of Weekly RP Attacks (All Attacks), Median [3]: 3.05
- Average Severity of Weekly RP Attacks (All Attacks), Percent Change from Baseline, Mean [3]: −23.02%
- Average Severity of Weekly RP Attacks (All Attacks), Percent Change from Baseline, Median [3]: −21.20%
- Average Severity (0-10) of weekly RP attacks, Median (Pooled Cilnidipine 10 mg and Cilnidipine 10 mg + Tadalafil 5 mg, Excluding Outliers, ITT Part A): 3.05
- Average Severity (0-10) of weekly RP attacks, Mean [4]: 4.90
- Average Severity (0-10) of weekly RP attacks, Median [4]: 4.90
- Average severity of weekly RP attacks, Percent Change from Baseline, Mean [4]: −21.20%
- Average severity of weekly RP attacks, Change from Baseline, Mean (Pooled Cilnidipine 10 mg and Cilnidipine 10 mg + Tadalafil 5 mg, by Baseline RCS: first subgroup of Table C-7, ITT Part A): −1.35
- Average Severity (0-10) of weekly RP attacks, Mean [5]: 4.90
- Average Severity (0-10) of weekly RP attacks, Median [5]: 4.90
- Average severity of weekly RP attacks, Percent Change from Baseline, Mean [5]: −21.20%
- Average severity of weekly RP attacks, Percent Change from Baseline, Median [5]: −21.20%
- Average Severity of Weekly Symptomatic RP Attacks, Change from Baseline, Mean [6]: −1.06
- Average Severity of Weekly Symptomatic RP Attacks, Change from Baseline, Median [6]: −0.33
- Average Severity of Weekly Symptomatic RP Attacks, Mean [6]: 2.85
- Average Severity of Weekly Symptomatic RP Attacks, Median [6]: 2.40
- Average Severity of Weekly Symptomatic RP Attacks, Percent Change from Baseline, Mean [6]: −24.28%
- Average Severity of Weekly Symptomatic RP Attacks, Percent Change from Baseline, Median [6]: −12.02%
- Average Severity of Weekly Symptomatic RP Attacks, Change from Baseline, Mean [7]: −1.79
- Average Severity of Weekly Symptomatic RP Attacks, Change from Baseline, Median [7]: −1.79
- Average Severity of Weekly Symptomatic RP Attacks, Mean [7]: 5.06
- Average Severity of Weekly Symptomatic RP Attacks, Median [7]: 5.06
- Average Severity of Weekly Symptomatic RP Attacks, Percent Change from Baseline, Mean [7]: −26.14%
- Average Severity of Weekly Symptomatic RP Attacks, Percent Change from Baseline, Median [7]: −26.14%
- Average Severity of Weekly Symptomatic RP Attacks, Change from Baseline, Mean [8]: −1.06
- Average Severity of Weekly Symptomatic RP Attacks, Change from Baseline, Median [8]: −0.33
- Average Severity of Weekly Symptomatic RP Attacks, Mean [8]: 2.85
- Average Severity of Weekly Symptomatic RP Attacks, Median [8]: 2.40
- Average Severity of Weekly Symptomatic RP Attacks, Percent Change from Baseline, Mean [8]: −24.28%
- Average Severity of Weekly Symptomatic RP Attacks, Percent Change from Baseline, Median [8]: −12.02%
- Average Severity of Weekly Symptomatic RP Attacks, Change from Baseline, Mean [9]: −1.79
- Average Severity of Weekly Symptomatic RP Attacks, Change from Baseline, Median [9]: −1.79
- Average Severity of Weekly Symptomatic RP Attacks, Mean [9]: 5.06
- Average Severity of Weekly Symptomatic RP Attacks, Median [9]: 5.06
- Average Severity of Weekly Symptomatic RP Attacks, Percent Change from Baseline, Mean [9]: −26.14%
- Average Severity of Weekly Symptomatic RP Attacks, Percent Change from Baseline, Median [9]: −26.14%
- Average Severity of Weekly RP Attacks (All Attacks), Change from Baseline, Mean [10]: −1.02
- Average Severity of Weekly RP Attacks (All Attacks), Change from Baseline, Median [10]: −0.96
- Average Severity of Weekly RP Attacks (All Attacks), Mean [10]: 3.35
- Average Severity of Weekly RP Attacks (All Attacks), Median [10]: 3.06
- Average Severity of Weekly RP Attacks (All Attacks), Percent Change from Baseline, Mean [10]: −21.83%
- Average Severity of Weekly RP Attacks (All Attacks), Percent Change from Baseline, Median [10]: −16.40%
- Average severity of weekly RP attacks, Change from Baseline, Median (Pooled Cilnidipine 20 mg and Cilnidipine 20 mg + Tadalafil 5 mg, Excluding Outliers, ITT Part A): −0.96
- Average Severity (0-10) of weekly RP attacks, Median [11]: 2.40
- Average severity of weekly RP attacks, Change from Baseline, Mean [11]: −0.84
- Average severity of weekly RP attacks, Change from Baseline, Median [11]: −0.39
- Average Severity (0-10) of weekly RP attacks, Median [12]: 2.40
- Average severity of weekly RP attacks, Change from Baseline, Mean [12]: −0.84
- Average severity of weekly RP attacks, Change from Baseline, Median [12]: −0.39
- Severity (change) (Pooled Cilnidipine (n = 7)): −16%
- Average Severity of Weekly Symptomatic RP Attacks, Change from Baseline, Mean [13]: −0.87
- Average Severity of Weekly Symptomatic RP Attacks, Change from Baseline, Median [13]: −0.33
- Average Severity of Weekly Symptomatic RP Attacks, Mean [13]: 2.79
- Average Severity of Weekly Symptomatic RP Attacks, Median [13]: 2.40
- Average Severity of Weekly Symptomatic RP Attacks, Percent Change from Baseline, Mean [13]: −19.22%
- Average Severity of Weekly Symptomatic RP Attacks, Percent Change from Baseline, Median [13]: −12.02%
- Average Severity of Weekly Symptomatic RP Attacks, Change from Baseline, Mean [14]: −0.87
- Average Severity of Weekly Symptomatic RP Attacks, Change from Baseline, Median [14]: −0.33
- Average Severity of Weekly Symptomatic RP Attacks, Mean [14]: 2.79
- Average Severity of Weekly Symptomatic RP Attacks, Median [14]: 2.40
- Average Severity of Weekly Symptomatic RP Attacks, Percent Change from Baseline, Mean [14]: −19.22%
- Average Severity of Weekly Symptomatic RP Attacks, Percent Change from Baseline, Median [14]: −12.02%
- Average Severity of Weekly Symptomatic RP Attacks, Percent Change from Baseline, Mean (Pooled Cilnidipine, ITT Part A): −19.22%
- Average Severity of Weekly Symptomatic RP Attacks, Percent Change from Baseline, Median (Pooled Cilnidipine, ITT Part A): −12.02%
- Average Severity of Weekly RP Attacks (All Attacks), Change from Baseline, Mean [15]: −0.71
- Average Severity of Weekly RP Attacks (All Attacks), Change from Baseline, Median [15]: −0.20
- Average Severity of Weekly RP Attacks (All Attacks), Mean [15]: 2.55
- Average Severity of Weekly RP Attacks (All Attacks), Median [15]: 2.40
- Average Severity of Weekly RP Attacks (All Attacks), Percent Change from Baseline, Mean [15]: −17.99%
- Average Severity of Weekly RP Attacks (All Attacks), Percent Change from Baseline, Median [15]: −7.69%
- Average Severity (0-10) of weekly RP attacks, Median [16]: 2.40
- Average severity of weekly RP attacks, Change from Baseline, Mean [16]: −0.71
- Average severity of weekly RP attacks, Change from Baseline, Median [16]: −0.20
- Average Severity (0-10) of weekly RP attacks, Mean [17]: 2.55
- Average Severity (0-10) of weekly RP attacks, Median [17]: 2.40
- Average severity of weekly RP attacks, Change from Baseline, Mean [17]: −0.71
- Average severity of weekly RP attacks, Change from Baseline, Median [17]: −0.20
- Average severity of weekly RP attacks, Percent Change from Baseline, Mean [17]: −17.99%
- Average severity of weekly RP attacks, Percent Change from Baseline, Median [17]: −7.69%
- Average Severity (0-10) of weekly RP attacks, Mean [18]: 2.55
- Average Severity (0-10) of weekly RP attacks, Median [18]: 2.40
- Average severity of weekly RP attacks, Change from Baseline, Mean [18]: −0.71
- Average severity of weekly RP attacks, Change from Baseline, Median [18]: −0.20
- Average severity of weekly RP attacks, Percent Change from Baseline, Mean [18]: −17.99%
- Average severity of weekly RP attacks, Percent Change from Baseline, Median [18]: −7.69%
- Average Severity of Weekly Symptomatic RP Attacks, Percent Change from Baseline, Mean [19]: −19.22%
- Average Severity of Weekly Symptomatic RP Attacks, Percent Change from Baseline, Median [19]: −12.02%
- Average Severity of Weekly Symptomatic RP Attacks, Change from Baseline, Mean [20]: −0.87
- Average Severity of Weekly Symptomatic RP Attacks, Change from Baseline, Median [20]: −0.33
- Average Severity of Weekly Symptomatic RP Attacks, Mean [20]: 2.79
- Average Severity of Weekly Symptomatic RP Attacks, Median [20]: 2.40
- Average Severity of Weekly Symptomatic RP Attacks, Change from Baseline, Mean [21]: −0.87
- Average Severity of Weekly Symptomatic RP Attacks, Change from Baseline, Median [21]: −0.33
- Average Severity of Weekly Symptomatic RP Attacks, Mean [21]: 2.79
- Average Severity of Weekly Symptomatic RP Attacks, Median [21]: 2.40
- severity of attacks, dose response (cilnidipine monotherapy 10 mg vs 20 mg (n=3)): 20 mg reducing severity more than 10 mg

Source: patent US20240358692A1, “TREATMENT OF SCLERODERMA” (Aisa Pharma, Inc., priority 2023, published 2024)
